From patent US7718704B2, “Immunosuppressant compounds and compositions” (IRM LLC, priority 2004, dated 2010)

How the values were obtained:
human EDG-1 = target: T1, human EDG-1 (Homo sapiens, UniProt P21453); experiment: EDG-1 (S1P1) GTP [γ-35S] binding assay (SPA); assay type: biochemical; settings: membranes of CHO cells expressing human EDG-1
T1 construct: c-myc (N); expressed in transfected cells; host or cells: CHO cell clones (membrane preparation)
Procedure: (§1) A. In vitro: A scintillation proximity assay (SPA) for measuring GTP [γ-^35S]binding to membranes prepared from CHO cells expressing human EDG/S1P receptors.
EDG-1 (S1P1) GTP [γ-^35S] binding assay: Membrane protein suspensions are prepared from CHO cell clones stably expressing a human EDG-1 N-terminal c-myc tag. Solution of test compounds ranging from 10 mM to 0.01 nM are prepared in DMSO/50 mM HCl and then diluted into assay buffer (20 mM HEPES, pH7.4, 100 mM NaCl, […], 0.1% fat free BSA). Assay buffer containing 10 mM GDP is mixed with wheat germ agglutinin-coated SPA-beads (1 mg/well) followed by the addition of human EDG-1 membrane protein suspension (10 μg/well) and test compound. The bead/membrane/compound assay components are then mixed for 10-15 minutes on a shaker at room temperature. GTP [γ-^35S] ([…]) and bead/membrane/compound assay mixture are added to individual wells of a 96 well Optiplate™(final volume 225 μl/well), sealed and incubated at room temperature for 110 to 120 minutes under constant shaking. After centrifugation (2000 rpm, 10 minutes) luminescence is measured with a TopCount™ instrument.
EC50 values are obtained by fitting the GTP [γ-^35S] binding curves (raw data) with the dose response curve-fitting tool of ORIGIN V. 6.1. […]

[1] = test system: EDG-3, EDG-5, EDG-6 and EDG-8; experiment: EDG-3, -5, -6 and -8 GTP [γ-35S] binding assays (selectivity versus EDG-1); assay type: biochemical, human
Procedure: as §1
Concentrations of EDG receptor expressing membranes range between 13-19 μg per well.

[2] = test system: peripheral blood lymphocytes; experiment: Measurement of circulating lymphocytes (blood lymphocyte depletion); assay type: in vivo, mice (C57bl/6 male); settings: Mus musculus, mice, oral gavage, blood collected 6 and 24 hours after administration, read-out: ED50, effective dose required displaying 50% of blood lymphocyte depletion
Procedure: Measurements of circulating lymphocytes: Compounds are dissolved in DMSO and diluted to obtain a final concentration of 4% DMSO (v/v, final concentration) and then further diluted in a constant volume of Tween80 25%/H2O, v/v. Tween80 25%/H2O (200 μl), 4% DMSO, and FTY720 (10 μg) are included as negative and positive controls, respectively. Mice (C57bl/6 male, 6-10 week-old) are administered 250-300 μL of compound solution orally by gavages under short isoflurane anesthesia.
Blood is collected from the retro-orbital sinus 6 and 24 hours after drug administration under short isoflurane anesthesia. Whole blood samples are subjected to hematology analysis. Peripheral lymphocyte counts are determined using an automated analyzer. Subpopulations of peripheral blood lymphocytes are stained by fluorochrome-conjugated specific antibodies and analyzed using a fluorescent activating cell sorter (Facscalibur). Two mice are used to assess the lymphocyte depletion activity of each compound screened. The result is an ED50, which is defined as the effective dose required displaying 50% of blood lymphocyte depletion.

T1 sequence (P21453 whole entry): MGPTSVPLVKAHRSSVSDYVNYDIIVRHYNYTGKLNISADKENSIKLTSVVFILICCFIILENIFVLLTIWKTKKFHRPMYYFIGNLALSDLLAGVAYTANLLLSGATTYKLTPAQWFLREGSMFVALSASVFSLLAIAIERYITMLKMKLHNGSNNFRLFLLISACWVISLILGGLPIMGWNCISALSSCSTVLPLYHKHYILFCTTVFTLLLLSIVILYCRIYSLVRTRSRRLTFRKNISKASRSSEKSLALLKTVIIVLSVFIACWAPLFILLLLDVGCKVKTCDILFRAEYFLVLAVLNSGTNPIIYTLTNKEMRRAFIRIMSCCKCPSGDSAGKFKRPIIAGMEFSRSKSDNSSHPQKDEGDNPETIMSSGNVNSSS

Row | EC50 (human EDG-1) | selectivity for EDG-1 compared to one or more of the other receptors including EDG-3, EDG-5, EDG-6 and EDG-8 [1] | SMILES | ED50 [2]
1 | 0.78 nM | at least 1000 fold | O=C(O)CCNCc1ccc2c(c1)CCC/C2=N\OCc1ccc(C2CCCCC2)c(C(F)(F)F)c1 [Example 1, 3-{[5-(4-Cyclohexyl-3-trifluoromethyl-benzyloxyimino)-5,6,7,8-tetrahydro-naphthalen-2-ylmethyl]-amino}-propionic Acid] | 
2 |  |  | O=C(O)C1CN(Cc2ccc3c(c2)CCC/C3=N\OCc2ccc(C3CCCCC3)c(C(F)(F)F)c2)C1 [Example 2, 1-[5-(4-Cyclohexyl-3-trifluoromethyl-benzyloxyimino)-5,6,7,8-tetrahydro-naphthalen-2-ylmethyl]-azetidine-3-carboxylic acid] | 0.2 mg/kg
